Tests used:
[1] = biological target: mMC4R (Mus musculus, UniProt P56450); assay: cAMP-based β-galactosidase reporter agonist assay in HEK293 cells, mMC4R; conditions: for mMC4R fold difference: potency loss; for selectivity for the mMC4R over the mMC1R: from agonist EC50 values
[2] = biological target: T1, mMC1R (Mus musculus, UniProt Q01727); assay: cAMP-based β-galactosidase reporter agonist assay in HEK293 cells, mMC1R; conditions: for mMC1R fold difference: potency loss
[3] = test system: hMC4R; conditions: cited from earlier work
[4] = biological target: mMC3R (Mus musculus, UniProt P33033); assay: cAMP-based β-galactosidase reporter agonist assay in HEK293 cells, mMC3R; conditions: for selectivity for the mMC3R over the mMC1R: from agonist EC50 values
Chain of mMC3R (P33033 whole entry): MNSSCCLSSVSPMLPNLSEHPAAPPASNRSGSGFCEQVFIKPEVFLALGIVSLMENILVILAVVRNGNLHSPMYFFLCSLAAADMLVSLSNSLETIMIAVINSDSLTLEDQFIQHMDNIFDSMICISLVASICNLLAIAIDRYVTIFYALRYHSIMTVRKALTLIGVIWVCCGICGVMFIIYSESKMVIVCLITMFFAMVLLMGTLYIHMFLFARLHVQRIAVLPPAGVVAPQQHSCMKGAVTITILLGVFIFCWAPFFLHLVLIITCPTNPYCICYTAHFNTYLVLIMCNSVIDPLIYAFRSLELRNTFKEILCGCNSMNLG

[5] = biological target: mMC5R (Mus musculus, UniProt P41149); assay: cAMP-based β-galactosidase reporter agonist assay in HEK293 cells, mMC5R; conditions: for mMC5R fold difference: potency loss
Chain of mMC5R (P41149 whole entry): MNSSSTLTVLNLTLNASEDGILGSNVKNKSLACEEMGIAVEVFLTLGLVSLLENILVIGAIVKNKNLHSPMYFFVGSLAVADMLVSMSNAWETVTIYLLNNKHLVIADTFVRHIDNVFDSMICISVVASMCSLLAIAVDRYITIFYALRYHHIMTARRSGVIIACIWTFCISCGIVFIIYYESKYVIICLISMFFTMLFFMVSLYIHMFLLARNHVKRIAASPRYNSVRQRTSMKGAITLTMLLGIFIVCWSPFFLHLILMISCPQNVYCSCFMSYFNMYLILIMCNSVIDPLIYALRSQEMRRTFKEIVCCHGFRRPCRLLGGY

[6] = biological target: T1, mMC1R; conditions: B16 murine melanoma cells; relative to α-MSH; cited from earlier work
[7] = biological target: T1, mMC1R; conditions: B16 murine melanoma cells; relative to α-MSH; cited from earlier work; remark: listed apart in the source
[8] = test system: rMC3R; conditions: HEK293 cells expressing the rMC3R; relative to α-MSH; cited from earlier work
[9] = test system: hMC4R; conditions: cited from earlier work; remark: listed apart in the source
[10] = EC50 of substituted peptide divided by EC50 of NDP-MSH
[11] = EC50 of substituted peptide divided by EC50 of α-MSH

T1 sequence (Q01727 whole entry): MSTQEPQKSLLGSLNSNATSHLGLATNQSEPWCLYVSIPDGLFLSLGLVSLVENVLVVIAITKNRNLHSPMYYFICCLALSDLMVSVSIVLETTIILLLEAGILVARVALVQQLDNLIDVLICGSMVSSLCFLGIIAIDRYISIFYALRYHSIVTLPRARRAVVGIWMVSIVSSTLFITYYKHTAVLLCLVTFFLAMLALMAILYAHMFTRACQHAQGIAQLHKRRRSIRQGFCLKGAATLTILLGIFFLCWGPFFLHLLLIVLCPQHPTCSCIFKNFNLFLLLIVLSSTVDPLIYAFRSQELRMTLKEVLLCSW
Chain of mMC4R (P56450 whole entry): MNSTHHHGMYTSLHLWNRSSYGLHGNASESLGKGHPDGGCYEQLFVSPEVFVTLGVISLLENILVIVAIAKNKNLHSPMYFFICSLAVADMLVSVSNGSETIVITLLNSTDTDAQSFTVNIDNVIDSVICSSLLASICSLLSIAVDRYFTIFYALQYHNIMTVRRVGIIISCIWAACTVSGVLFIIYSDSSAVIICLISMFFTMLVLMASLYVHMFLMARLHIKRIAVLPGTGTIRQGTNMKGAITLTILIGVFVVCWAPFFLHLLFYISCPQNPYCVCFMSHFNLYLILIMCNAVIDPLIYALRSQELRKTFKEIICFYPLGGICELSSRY

Row | Compound | mMC4R fold difference [1, 10] [fold] | mMC1R fold difference [2, 10] | fold decreased agonist potency at the hMC4R relative to NDP-MSH [3] [fold] | EC50 [4] [nM] | mMC3R fold difference ([4]; EC50 of substituted peptide divided by EC50 of NDP-MSH, potency loss) [fold] | mMC5R fold difference [5, 10] | mMC4R fold difference [1, 11] | EC50 ([1]; mMC4R EC50, bound, Table 2, EC50 higher than 20 μM) [nM] | mMC1R fold difference [2, 11] [fold] | fold decreased binding affinity at the mMC1R [6] | fold decreased tyrosinase potency at the mMC1R [7] | mMC5R fold difference [5, 11] | EC50 ([5]; mMC5R EC50, bound, Table 2, EC50 higher than 20 μM) [nM] | fold decreased binding affinity at the rMC3R [8] | fold agonist potency loss at the hMC4R relative to NDP-MSH [9] [fold] | selectivity for the mMC4R over the mMC1R [1] [fold] | EC50 ([2]; mMC1R EC50, bound, Table 2, EC50 higher than 20 μM) [nM] | selectivity for the mMC3R over the mMC1R [4] [fold] | selectivity for the mMC5R over the mMC1R ([5]; from agonist EC50 values) [fold] | selectivity for the mMC5R over the mMC4R ([5]; from agonist EC50 values) [fold]
1 | CCCC[C@H](NC(=O)[C@H](CO)NC(=O)[C@H](Cc1ccc(O)cc1)NC(=O)[C@H](CO)NC(C)=O)C(=O)N[C@@H](C)C(=O)N[C@@H](Cc1c[nH]cn1)C(=O)N[C@H](Cc1ccccc1)C(=O)N[C@@H](CCCNC(=N)N)C(=O)N[C@@H](Cc1c[nH]c2ccccc12)C(=O)NCC(=O)N[C@@H](CCCCN)C(=O)N1CCC[C@H]1C(=O)N[C@H](C(N)=O)C(C)C [[Ala^5]NDP-MSH, Ac-Ser-Tyr-Ser-Nle-Ala-His-DPhe-Arg-Trp-Gly-Lys-Pro-Val-NH2] | 4 | no change | 4 | 1.18 ± 0.4 | 5 | no change | – | – | – | – | – | – | – | – | – | – | – | – | – | –
2 | CSCC[C@H](NC(=O)[C@H](CO)NC(=O)[C@H](Cc1ccc(O)cc1)NC(=O)[C@H](CO)NC(C)=O)C(=O)N[C@@H](CCC(=O)O)C(=O)N[C@@H](Cc1c[nH]cn1)C(=O)N[C@@H](Cc1ccccc1)C(=O)N[C@@H](CCCNC(=N)N)C(=O)N[C@@H](C)C(=O)NCC(=O)N[C@@H](CCCCN)C(=O)N1CCC[C@H]1C(=O)N[C@H](C(N)=O)C(C)C [[Ala^9]α-MSH] | – | – | – | 15700 ± 4870 | – | – | 1500 fold | > 20000 | 570 | 2000 fold | 120 fold | 1370 fold | > 20000 | 83 fold | – | – | – | – | – | –
3 | CCCC[C@H](NC(=O)[C@H](CO)NC(=O)[C@H](Cc1ccc(O)cc1)NC(=O)[C@H](CO)NC(C)=O)C(=O)N[C@@H](CCC(=O)O)C(=O)N[C@@H](Cc1c[nH]cn1)C(=O)N[C@H](Cc1ccccc1)C(=O)N[C@@H](C)C(=O)N[C@@H](Cc1c[nH]c2ccccc12)C(=O)NCC(=O)N[C@@H](CCCCN)C(=O)N1CCC[C@H]1C(=O)N[C@H](C(N)=O)C(C)C [[Ala^8]NDP-MSH, Ac-Ser-Tyr-Ser-Nle-Glu-His-DPhe-Ala-Trp-Gly-Lys-Pro-Val-NH2] | 29 | 6 fold | – | 2.07 ± 0.42 | – | did not affect the agonist potency | – | – | – | – | – | – | – | – | 32 | – | – | – | – | –
4 | CSCC[C@H](NC(=O)[C@H](CO)NC(=O)[C@H](Cc1ccc(O)cc1)NC(=O)[C@H](CO)NC(C)=O)C(=O)N[C@@H](C)C(=O)N[C@@H](Cc1c[nH]cn1)C(=O)N[C@@H](Cc1ccccc1)C(=O)N[C@@H](CCCNC(=N)N)C(=O)N[C@@H](Cc1c[nH]c2ccccc12)C(=O)NCC(=O)N[C@@H](CCCCN)C(=O)N1CCC[C@H]1C(=O)N[C@H](C(N)=O)C(C)C [[Ala^5]α-MSH] | – | – | – | 220 ± 55 | – | – | 15 fold | – | 1560 | equipotent | equipotent | unaltered | – | equipotent | – | 130 | > 20000 | 220 | 740 | –
5 | CSCC[C@H](NC(=O)[C@H](C)NC(=O)[C@H](Cc1ccc(O)cc1)NC(=O)[C@H](CO)NC(C)=O)C(=O)N[C@@H](CCC(=O)O)C(=O)N[C@@H](Cc1c[nH]cn1)C(=O)N[C@@H](Cc1ccccc1)C(=O)N[C@@H](CCCNC(=N)N)C(=O)N[C@@H](Cc1c[nH]c2ccccc12)C(=O)NCC(=O)N[C@@H](CCCCN)C(=O)N1CCC[C@H]1C(=O)N[C@H](C(N)=O)C(C)C [[Ala^3]α-MSH] | – | – | – | 12.1 ± 6.35 | – | – | within experimental error | – | 26 | equipotent | equipotent | within experimental error | – | equipotent | – | – | – | – | – | –
6 | CSCC[C@H](NC(=O)[C@H](CO)NC(=O)[C@H](Cc1ccc(O)cc1)NC(=O)[C@H](CO)NC(C)=O)C(=O)N[C@@H](CCC(=O)O)C(=O)N[C@@H](Cc1c[nH]cn1)C(=O)N[C@@H](Cc1ccccc1)C(=O)N[C@@H](C)C(=O)N[C@@H](Cc1c[nH]c2ccccc12)C(=O)NCC(=O)N[C@@H](CCCCN)C(=O)N1CCC[C@H]1C(=O)N[C@H](C(N)=O)C(C)C [[Ala^8]α-MSH] | – | – | – | 670 ± 215 | – | – | 470 fold | – | 200 | 2080 fold | 100 fold | 5 fold | – | 200 fold | – | – | – | – | – | 120
7 | CC(=O)N[C@@H](CO)C(=O)N[C@@H](Cc1ccc(O)cc1)C(=O)N[C@@H](CO)C(=O)N[C@@H](C)C(=O)N[C@@H](CCC(=O)O)C(=O)N[C@@H](Cc1c[nH]cn1)C(=O)N[C@@H](Cc1ccccc1)C(=O)N[C@@H](CCCNC(=N)N)C(=O)N[C@@H](Cc1c[nH]c2ccccc12)C(=O)NCC(=O)N[C@@H](CCCCN)C(=O)N1CCC[C@H]1C(=O)N[C@H](C(N)=O)C(C)C [[Ala^4]α-MSH] | – | – | – | 17.4 ± 6.12 | – | – | 5 fold | – | 400 | 140 fold | 59 fold | did not alter potency | – | 14 fold | – | 100 | – | 710 | 210 | –
8 | CSCC[C@H](NC(=O)[C@H](CO)NC(=O)[C@H](Cc1ccc(O)cc1)NC(=O)[C@H](CO)NC(C)=O)C(=O)N[C@@H](CCC(=O)O)C(=O)N[C@@H](C)C(=O)N[C@@H](Cc1ccccc1)C(=O)N[C@@H](CCCNC(=N)N)C(=O)N[C@@H](Cc1c[nH]c2ccccc12)C(=O)NCC(=O)N[C@@H](CCCCN)C(=O)N1CCC[C@H]1C(=O)N[C@H](C(N)=O)C(C)C [[Ala^6]α-MSH] | – | – | – | 4270 ± 1960 | – | – | 110 fold | – | 35 | 83 fold | 6 fold | 45 fold | – | 6 fold | – | – | – | – | – | –
9 | CSCC[C@H](NC(=O)[C@H](CO)NC(=O)[C@H](Cc1ccc(O)cc1)NC(=O)[C@H](CO)NC(C)=O)C(=O)N[C@@H](CCC(=O)O)C(=O)N[C@@H](Cc1c[nH]cn1)C(=O)N[C@@H](C)C(=O)N[C@@H](CCCNC(=N)N)C(=O)N[C@@H](Cc1c[nH]c2ccccc12)C(=O)NCC(=O)N[C@@H](CCCCN)C(=O)N1CCC[C@H]1C(=O)N[C@H](C(N)=O)C(C)C [[Ala^7]α-MSH] | – | – | – | 1660 ± 825 | – | – | 190 fold | – | 200 | 500 fold | 260 fold | 210 fold | – | 91 fold | – | – | – | – | – | –
10 | CSCC[C@H](NC(=O)[C@H](CO)NC(=O)[C@H](Cc1ccc(O)cc1)NC(=O)[C@H](C)NC(C)=O)C(=O)N[C@@H](CCC(=O)O)C(=O)N[C@@H](Cc1c[nH]cn1)C(=O)N[C@@H](Cc1ccccc1)C(=O)N[C@@H](CCCNC(=N)N)C(=O)N[C@@H](Cc1c[nH]c2ccccc12)C(=O)NCC(=O)N[C@@H](CCCCN)C(=O)N1CCC[C@H]1C(=O)N[C@H](C(N)=O)C(C)C [[Ala^1]α-MSH] | – | – | – | 17.4 ± 10.4 | – | – | no differences | – | 5 | did not affect | did not affect | no differences | – | did not affect | – | – | – | – | – | –

Reference: publication PMC5596636 (ACS chemical neuroscience, 2016)
